“Also recorded” adds a separate entry of the source.
Columns and labels:
Format in all cases: cell-based, mouse
Akt = Akt western blot; conditions: all pH treatments; 48 hrs
Protocol: Western blots using Akt and phosphorylated Akt (P-Akt) primary antibodies were conducted on all conditions of the cultured N38 cells to determine whether TCAP was preventing cell death by phosphorylation. The same western blot procedure outlined above was repeated with an Akt primary antibody (Cell Signalling, Beverly) at a titer of 1:500, followed by membrane incubation with anti-rabbit HRP-conjugated secondary antibody (Amersham, Baie d'Urfé) at 1:3000, followed by exposure on Kodak X-OMAT Blue film (Perkin Elmer Canada Inc, Vaudreuil-Dorion) for 30 min. Phospho Akt expression at 48 hrs was determined using the method described above with a PAkt primary antibody (Cell Signalling 9271) at 1:1000 followed by membrane incubation with anti-rabbit HRP-conjugated secondary antibody (Amersham, Baie d'Urfé) at 1:2000 followed by exposure on Kodak X-OMAT Blue film (Perkin Elmer Canada Inc, Vaudreuil-Dorion) overnight. Cultured N38 cells were serum-starved for 48 hours in order to induce phosphorylation and following the same protocol above were loaded as a control. Total optical density of the blots, were quantified using LabWorks 4.0 Image Acquisition and Analysis Software from Ultra-Violet Products Ltd. (UVP).

N38 cells [1] = experiment: MTT assay (mitochondrial activity); conditions: for MTT activity (optical density): 48 hrs, 2×10^−7 M
Protocol: The effect of TCAP-1 on cell proliferation at each pH was examined by direct counts using a hemocytometer and indirectly by assessing mitochondrial activity using a colorimetric MTT (3-[4,5-dimethylthiazol-2-yl]-2,5-diphenyl tetrazolium bromide) assay on cultured N38 cells. For hemocytometer counts, the cultures were incubated for 24 and 48 hrs. The cells were suspended using 1 ml of 0.25% Trypsin with EDTA (Gibco-Invitrogen, Burlington, Canada), centrifuged at 1600 RPM for 4 min, and resuspended with PBS. The cells in 50 μl aliquots were vortexed and counted on a hemocytometer.
A (3-4,5-dimethylthiazol-2-yl]-2,5-diphenyl tetrazolium bromide) MTT assay was conducted using the In Vitro Toxicology Assay Kit: MTT based (Sigma, St. Louis). The cells were cultured for the MTT assay at 24 and 48 hours and were incubated at 37° C. in 5% CO2 for 3 hrs in the presence of MTT 200 μl/2 ml medium. The samples were mixed by shaking the plate horizontally for 30 min. The background absorbance of the multi-well plates was determined at 690 nm and subtracted from the 570 nm measurement.

caspase 8 = experiment: Caspase 8 colorimetric assay
Protocol: (§1) Caspase 8 and 3 colorimetric assays were performed on the N38 cells at all pH conditions. The assay was based on the detection of the chromophore pNA after cleavage from the labeled substrate IETD-pNA and DEVD-pNA for caspase 8 and 3, respectively. Comparison of the pNA absorbance from the suspected apoptotic sample was compared to the uninduced neutral pH sample. Caspase 8 and 3 were analysed using the Caspase-3 Colorimetric Activity Assay (Chemicon, Temecula USA) and Caspase-8 Colorimetric Activity Assay (Chemicon, Temecula USA). The cells from each pH treatment described previously at 24 and 48 hrs were removed using a cell scraper and centrifuged at 1500 rpm for 10 minutes. The cells were resuspended in 350 μl of chilled cell lysis buffer containing 500 μl PBS, 5 μl 1% Triton ×100 (Sigma, St. Louis), 25 μl proteinase inhibitor cocktail set III (VWR, Mississauga), 0.5 μM dithiothreitol (DTT) (Sigma, St. Louis) and 2.5 μl phenylmethylsulphonylfluoride (PMSF) diluted in 1 mL of methanol (EM Science, Gibbstown), then incubated on ice for 10 min and centrifuged for 5 minutes at 10,000 rpm. The supernatant, consisting of cytosolic extracts, was transferred to a new tube and a bicinchoninic acid (BCA) protein assay (Pierce, Rockford) was conducted to determine total protein concentration. The absorbance of each sample was measured on a SPECTRAmax Microplate spectrophotometer at 405 nm after an incubation period of 2 hours at 37° C. Changes in caspase 3 activity were determined by comparing the absorbance reading from the induced sample with the level of the uninduced control. Background readings from the buffer were subtracted from the reading of both the induced (pH 6.8, 8.0, 8.4) and uninduced (pH 7.4) samples before calculating changes in caspase 3 activity. The same was done for the detection of caspase 8. As a control, N38 cells were cultured with pH 7.4 DMEM and incubated for 4 days, apoptosis was then induced using 10 μM/ml etoposide and lysed according to the above protocol and used a control for all subsequent caspase 3 detection. All assays were performed with 4 replications.

superoxide radical = experiment: Superoxide radical measured by conversion of a soluble tetrazolium salt; conditions: 48 hours
Protocol: The presence of the superoxide radical was measured indirectly by the conversion of a soluble tetrazolium salt in cells after 48 hours (FIG. 8A).

N38 cells [2] = experiment: Cell viability by Trypan Blue uptake; conditions: 48 hrs
Protocol: The proportion of viable cells in the samples was determined by measuring Trypan Blue uptake. At 48 hrs, the cells from the four pH treatments were suspended using 1 ml of Trypsin EDTA, centrifuged at 1600 RPM for 4 min and resuspended in 1 ml of BSS (Hank's Balanced Salt Solution) (Sigma, St. Louis). An aliquot of 0.5 ml of 0.04% Trypan Blue solution was transferred to a 1.5 ml tube, […] of BSS was added to 0.2 ml of the cell suspension; the samples were mixed thoroughly and the cell suspension-Trypan Blue mixture was allowed to stand for 10 minutes and then counted on a hemocytometer. Separate counts were kept for both viable and non viable cells.

caspase 3 = experiment: Caspase 3 colorimetric assay
Protocol: as §1

Question: “teneurin C-terminus associated peptide [TCAP-1]” was tested. Which “endogenous Akt on western blot, vehicle vs TCAP” value (Akt) did it give?
Answer: Its value is “no difference in endogenous Akt”.

Question: And the MTT activity (N38 cells [1]; pH 6.8)?
Answer: Its MTT activity is “did not induce a significant effect on MTT activity”.

Question: And the MTT activity (N38 cells [1]; pH 7.4)?
Answer: Its MTT activity is “did not induce a significant effect on MTT activity”.

Question: What about the “MTT activity (optical density)” value (N38 cells [1]; pH 8.0) of the same substance?
Answer: The value was “significant increase in optical density; also recorded: increased the number of viable cells”.

Question: And the “MTT activity (optical density)” value (N38 cells [1]; pH 8.4)?
Answer: Its value is “significant increase in optical density; also recorded: increased the number of viable cells”.

Question: What about the “relative level of caspase 8 activity, of the etoposide-induced increase” value (caspase 8; pH 7.4) of the same substance?
Answer: Its value is “about 70%”.

Question: And the “caspase 8 activity vs vehicle” value (caspase 8; pH 7.4, P<0.001)?
Answer: Its value is “increased caspase 8 activity”.

Question: And the “caspase 8 activity vs vehicle” value (caspase 8; pH 8.0)?
Answer: The value was “no significant differences in caspase 8 and 3 activity”.

Question: And the “caspase 8 activity vs vehicle” value (caspase 8; pH 8.4)?
Answer: The value was “no significant differences in caspase 8 and 3 activity”.

Question: What about the “decrease in absorbance of the substrate (proportional to superoxide radical activity)” value (superoxide radical; pH 8.0, p<0.05) of the same substance?
Answer: Its value is 40%.

Question: What about the “decrease in absorbance of the substrate (proportional to superoxide radical activity)” value (superoxide radical; pH 8.4, p<0.01) of the same substance?
Answer: Its value is 60%.

Question: What about the “cell viability by trypan blue uptake” value (N38 cells [2]; pH 6.8) of the same substance?
Answer: The value was “significant decrease in the number of cells that took up the trypan blue stain”.

Question: What about the “cell viability by trypan blue uptake” value (N38 cells [2]; pH 6.8, listed as TCAP) of the same substance?
Answer: Its value is “increased the number of viable cells”.

Question: And the “cell viability by trypan blue uptake” value (N38 cells [2]; pH 8.0)?
Answer: Its value is “significant decrease in the number of cells that took up the trypan blue stain”.

Question: And the “cell viability by trypan blue uptake” value (N38 cells [2]; pH 8.0, listed as TCAP)?
Answer: The value was “increased the number of viable cells”.

Question: And the “cell viability by trypan blue uptake” value (N38 cells [2]; pH 8.4)?
Answer: The value was “significant decrease in the number of cells that took up the trypan blue stain”.

Question: And the “cell viability by trypan blue uptake” value (N38 cells [2]; pH 8.4, listed as TCAP)?
Answer: Its value is “increased the number of viable cells”.

Question: And the “relative level of caspase 3 activity, of the etoposide-induced increase” value (caspase 3; pH 6.8)?
Answer: Its value is roughly 40%.

Question: And the “caspase 3 activity vs vehicle” value (caspase 3; pH 6.8, P<0.05)?
Answer: The value was “increased caspase 3 activity”.

Question: And the “caspase 3 activity vs vehicle” value (caspase 3; pH 8.0)?
Answer: The value was “no significant differences in caspase 8 and 3 activity”.

Question: And the “caspase 3 activity vs vehicle” value (caspase 3; pH 8.4)?
Answer: The value was “no significant differences in caspase 8 and 3 activity”.

From patent US20080015147A1, “Method for inhibiting neuronal cell death” (priority 2006, published 2008)
